Source: ChEMBL document CHEMBL1123003, “Synthesis and interaction of 5-(substituted-phenyl)-3-methyl-6,7-dihydropyrazolo[4,3-e] [1,4]diazepin-8(7H)-ones with benzodiazepine receptors in rat cerebral cortex” (J Med Chem, 1985)

These compounds were tested against GABA-A receptor; anion channel (assay: Displacement of [3H]flunitrazepam from GABA-A benzodiazepine receptor in synaptic membranes of rat cerebral cortex).
Format: cell membranes

| Structure (SMILES) | IC50 |
| --- | --- |
| Cc1n[nH]c2c1N=C(c1ccccc1)CNC2=O | 4.4 µM |
| COc1ccc(C2=Nc3c(C)n[nH]c3C(=O)NC2)cc1 | 46.5 µM |
| Cc1n[nH]c2c1N=C(c1ccc([N+](=O)[O-])cc1)CNC2=O | 30.5 µM |
| Cc1n[nH]c2c1N=C(c1ccc(-c3ccccc3)cc1)CNC2=O | > 100 µM |
| Cc1n[nH]c2c1N=C(c1ccc(Br)cc1)CNC2=O | 22.3 µM |
| CNC1=Nc2ccc(Cl)cc2C(c2ccccc2)=[N+]([O-])C1 [CHLORDIAZEPOXIDE] | 0.91 µM |
| Cc1n[nH]c2c1N=C(c1ccc(Cl)cc1)CNC2=O | 10 µM |
| CCn1nc(C)c2c1C(c1ccccc1)=NCC(=O)N2 [RIPAZEPAM] | 0.67 µM |
